The values below come from ChEMBL document CHEMBL5331103, “Discovery of novel 2-hydroxyl-4-benzyloxybenzyl aniline derivatives as potential multifunctional agents for the treatment of Parkinson's disease” (Eur J Med Chem, 2023).

Activity calls are given as the source filed them. The calls are words filed in the database; no cut-off is given here.

Series [1] deals with BV-2. Briefly: Anti-neuroinflammatory activity in mouse BV-2 cells assessed as inhibition of LPS-induced NO production at 0.5 uM preincubated for 30 mins followed by LPS stimulation and measured after 24 hrs by Griess reagent based assay relative to control. Format: functional. The note with it: time 24.5 hrs. (In general: The Griess reaction detects nitrite, a stable product of nitric oxide.)

Series [2] has as its system PC-12. Briefly: Cytotoxicity against rat PC-12 cells assessed as reduction in cell viability upto 50 uM incubated for 2 hrs by MTT assay. The note with it: pc-12, 2 h. Format: toxicity, cell-based.
Series [3] deals with BV-2. Briefly: Anti-neuroinflammatory activity in mouse BV-2 cells assessed as inhibition of LPS-induced TNF-alpha production at 10 uM preincubated for 30 mins followed by LPS stimulation and measured after 24 hrs by ELISA analysis relative to control. Format: functional. Particulars: time 24.5 hrs.
Series [4] can be described thus: Permeability of the compound in porcine brain incubated for 18 hrs by PAMPA-BBB assay. The series is classed as ADME, Sus scrofa. Particulars: pig, read-out: permeability. Background: The PAMPA barrier holds no transporters, so it reflects passive diffusion.
Series [5] relates to Mus musculus. Briefly: Anti-parkinson's disease activity in MPTP-induced C57BL/6C mouse model assessed as decrease in MDA level in corpus striatum at 53.5 mg/kg, IG preadministered with MPTP for 5 days followed by compound administration for 3 weeks and measured 1 hrs post last dose by HPLC-ECD method. The series is classed as functional, organism-based.
For series [6], the target named is T1, Amine oxidase [flavin-containing] B (Homo sapiens, UniProt P27338).
T1 sequence (P27338 whole entry): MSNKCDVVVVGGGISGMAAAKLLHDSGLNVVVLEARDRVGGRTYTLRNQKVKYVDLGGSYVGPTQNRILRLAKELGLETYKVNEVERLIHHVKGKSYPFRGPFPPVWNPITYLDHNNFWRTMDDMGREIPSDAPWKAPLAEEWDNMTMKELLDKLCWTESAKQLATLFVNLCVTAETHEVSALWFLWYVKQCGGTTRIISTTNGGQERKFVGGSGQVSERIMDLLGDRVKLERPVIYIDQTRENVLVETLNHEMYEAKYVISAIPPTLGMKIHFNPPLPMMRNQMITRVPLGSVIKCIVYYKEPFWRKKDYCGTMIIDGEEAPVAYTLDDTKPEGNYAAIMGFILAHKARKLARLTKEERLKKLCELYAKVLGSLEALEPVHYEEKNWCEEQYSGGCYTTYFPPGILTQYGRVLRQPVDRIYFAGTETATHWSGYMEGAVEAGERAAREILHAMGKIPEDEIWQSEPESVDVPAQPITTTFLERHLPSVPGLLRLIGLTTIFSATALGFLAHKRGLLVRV
The series can be described thus: Competitive inhibition of MAO-B (unknown origin) using kynuramine as substrate assessed as inhibition constant by Lineweaver-Burk plot analysis.

Series [7] relates to Mus musculus. The series can be described thus: Anti-parkinson's disease activity in MPTP-induced C57BL/6C mouse model assessed as increase in traction test score at 53.5 mg/kg, IG preadministered with MPTP for 5 days followed by compound administration for 3 weeks and measured 1 hrs post last dose by traction test. The series is classed as functional, organism-based.
Series [8] deals with Mus musculus. Briefly: In vivo inhibition of MAO-B in MPTP-induced C57BL/6C parkinson's mouse model assessed as increase in DA level in corpus striatum at 53.5 mg/kg, IG preadministered with MPTP for 5 days followed by compound administration for 3 weeks and measured 1 hrs post last dose by HPLC-ECD method. Format: functional, organism-based.
For series [9], the target named is T1, Amine oxidase [flavin-containing] B. Briefly: Competitive inhibition of MAO-B (unknown origin) using kynuramine as substrate assessed as increase in Km at 0.007 to 0.028 uM by Lineweaver-Burk plot analysis. Particulars: dose 0.007-0.028 µM.
For series [10], the system named is PC-12. Briefly: Neuroprotective activity against H2O2-induced cell damage in rat PC-12 cells assessed as increase in cell viability at 10 uM preincubated for 2 hrs followed by H2O2 addition and measured after 24 hrs by MTT assay (reference value: 50.3%). The note with it: time 26 hrs. Format: functional. Background: Tetrazolium dyes change colour on reduction, which living cells bring about.

Series [11] relates to BV-2. Briefly: Inhibition of LPS-induced ROS production in mouse BV-2 cells at 10 uM preincubated for 30 mins followed by LPS-stimulation and measured after 30 mins by DCFH-DA based fluorescence microplate reader analysis relative to control. The series is classed as functional. Particulars: BV-2, 1 h, time 60 min.
Series [12] has as its system BV-2. Briefly: Anti-neuroinflammatory activity in mouse BV-2 cells assessed as inhibition of LPS-induced TNF-alpha production preincubated for 30 mins followed by LPS stimulation and measured after 24 hrs by ELISA analysis. Format: functional, cell-based. Particulars: dose 0.5-10 µM, time 24.5 hrs.
Series [13] is described as follows: Metal chelating activity assessed as Zn2+-compound complex formation by measuring increase in absorbance incubated for 2 hrs in the presence of ZnCl2 by UV-Vis spectra analysis.

One may read the inhibition as the relative decrease from the control value, in per cent. For orientation: Ki means the equilibrium dissociation constant of an inhibitor or competing ligand from its target. In the case of `Oc1cc(OCc2ccc(F)cc2)ccc1CNc1ccccc1`, the inhibition at 0.5 µM in the series on BV-2 [1] amounted to 13.5%. Moreover, the Activity result in the series on PC-12 [2] was “Non-Toxic”; in the series on PC-12 [10], 69.6%; in the series with BV-2 [12] it was “Dose-Dependent Effect”. Also, the inhibition at 10 µM in the series on BV-2 [3] was found to be 63.9%; in the series on BV-2 [11] it was 99%. Also, the Papp at 18 h in [4] was 86.2 nm/s. In addition, the outcome (in the series on Mus musculus [5]; in the series with Mus musculus [7]; in series [13]) was Active. The Ki in series [6] turned out to be 0.018 µM. Moreover, in the series on Mus musculus [8], the inhibition result was “Active”. For the same compound, the “inhibition (INH)” value in series [9] is “Active”.
